In patent US9504729B2, “Antiangiogenic small molecules and methods of use” (The United States of America, as represented by the …, priority 2009, dated 2016):

Test system: angiogenesis genes in dermal microvascular endothelial cells
Assay: Real time RT-PCR of angiogenesis gene expression during endothelial tube formation
Type: cell-based
Settings: 1 μM SM, 24 hours
Procedure: For gene expression studies, three independent experiments were run for each SM tested. 90.000 cells/well (6 wells/treatment) of dermal microvascular endothelial cells (Lonza, Walkersville, Md.) were seeded on polymerized GELTREX™ gel matrix (Invitrogen, Carlsbad, Calif.) in 24 well plates. Wells were immediately treated with the same volume of 1 μM SM or PBS. After 24 hours incubation at 37° C. and 5% CO2, cells were extracted using Cell Recovery Solution (BD Biosciences, San Jose, Calif., Cat. #354253). Total RNA was extracted with the RNeasy Mini Kit (Qiagen, Valencia, Calif., Cat. #74104), and retrotranscribed using […]® First-Strand reverse transcriptase (Invitrogen, Carlsbad, Calif., Cat. #11904-018). The real time PCR reactions were performed in an Opticon 2 cycler (MJ Research, Waltham, Mass.). Amplification was performed in a final volume of 25 μl, containing 2 μl cDNA (1:10 dilution from the reversed transcribed reaction) and 2 μl of primer mixture (10 μM each of forward and reverse primers). Samples were amplified as follows: after initial denaturation at 95 C for 2 minutes, reactions were run for 46 cycles at 95° C. for 30 seconds, 60° C. for 30 seconds, and 72° C. for 45 seconds. Fluorescence was measured in every cycle and a melting curve was run after the PCR by increasing temperature from 50 to 96° C. (in 0.5° C. increments). A defined single peak was obtained for all amplicons, thus confirming the specificity of the amplification.
The genes that were monitored were selected based on their relevance to the angiogenesis process. All experiments were done in triplicate. The results are shown in the volcano plots of FIG. 17. Log 2 fold-change is presented in the X-axis and log 10 P value in the Y-axis.

CC1CCN(CC[S-])CC1.O.O.[Cl][Pt+] [compound 292596]
Log2 fold-change of gene expression: Kifc1: 1.6 | Log2 fold-change of gene expression: LAMAS5: −0.3 | Log2 fold-change of gene expression: LECT1: 1.4 | Log2 fold-change of gene expression: LEP: 2.6 | Log2 fold-change of gene expression: Lasts2: 0.4 | Log2 fold-change of gene expression: Lrrk1: −1.5 | Log2 fold-change of gene expression: MDK: −1.5 | Log2 fold-change of gene expression: MMP2: 1.1 | Log2 fold-change of gene expression: MMP9: 1.8 | Log2 fold-change of gene expression: MMP11: −0.3 | Log2 fold-change of gene expression: MRC2: −0.5 | Log2 fold-change of gene expression: Mmm2: −2.4 | Log2 fold-change of gene expression: Myo1b: −2.0 | Log2 fold-change of gene expression: NID1: −3.6 | Log2 fold-change of gene expression: NM023516: 0.2 | Log2 fold-change of gene expression: NRP1: −2.3 | Log2 fold-change of gene expression: NRP2: −3.2 | Log2 fold-change of gene expression: Notch4: −0.6 | Log2 fold-change of gene expression: Npr3: 0.7 | Log2 fold-change of gene expression: PALD: −1.9 | Log2 fold-change of gene expression: PDCD2: −1.1 | Log2 fold-change of gene expression: PDGFA: 4.0 | Log2 fold-change of gene expression: PECAM1: −1.8 | Log2 fold-change of gene expression: PGF: −1.7 | Log2 fold-change of gene expression: PLAU: −0.2 | Log2 fold-change of gene expression: PLG: −0.4 | Log2 fold-change of gene expression: PNMT: −0.7 | Log2 fold-change of gene expression: PROK2: 2.0 | Log2 fold-change of gene expression: PTGS1: 1.1 | Log2 fold-change of gene expression: PTPRCAP: −0.5 | Log2 fold-change of gene expression: Pltp: 0.5 | Log2 fold-change of gene expression: Ptprb: −1.9 | Log2 fold-change of gene expression: Ptprm: −0.8 | Log2 fold-change of gene expression: RAMP2: −5.0 | Log2 fold-change of gene expression: RASD2: −0.5 | Log2 fold-change of gene expression: Rasip1: −0.5 | Log2 fold-change of gene expression: S1PR1: 0.2 | Log2 fold-change of gene expression: SERPINF1: 0.7 | Log2 fold-change of gene expression: SPHK1: 1.8 | Log2 fold-change of gene expression: STAB1: −0.5 | Log2 fold-change of gene expression: Sdc4: 1.4 | Log2 fold-change of gene expression: Sdpr: 0.8 | Log2 fold-change of gene expression: Slc43a3: 0.6 | Log2 fold-change of gene expression: Slco2a1: −1.0 | Log2 fold-change of gene expression: TEK: 1.3 | Log2 fold-change of gene expression: TGFA: 8.9 | Log2 fold-change of gene expression: TGFB1: −0.8 | Log2 fold-change of gene expression: TGFB2: 2.1 | Log2 fold-change of gene expression: TGFBR1: 1.4 | Log2 fold-change of gene expression: THBS1: −0.1 | Log2 fold-change of gene expression: THBS2: 1.1 | Log2 fold-change of gene expression: THY1: −5.8 | Log2 fold-change of gene expression: TIMP1: 1.4 | Log2 fold-change of gene expression: TIMP2: 0.4 | Log2 fold-change of gene expression: TIMP3: −1.2 | Log2 fold-change of gene expression: TNF: 6.1 | Log2 fold-change of gene expression: TNS1: −0.5 | Log2 fold-change of gene expression: TNS3: 1.3 | Log2 fold-change of gene expression: TRA2B: 0.9 | Log2 fold-change of gene expression: TYMP: −5.5 | Log2 fold-change of gene expression: VEGFA: 0.4 | Log2 fold-change of gene expression: VEGFC: 1.6 | Log2 fold-change of gene expression: VGLL4: −2.8 | Log2 fold-change of gene expression: Vwf: −2.6 | Log2 fold-change of gene expression: copa: −0.5 | Log2 fold-change of gene expression: itbp4: −1.5 | Log2 fold-change of gene expression: ralb: −0.5 | Log2 fold-change of gene expression: stard9: −0.9 | Log2 fold-change of gene expression: B2M (1st listing (r49)): −2.0 | Log2 fold-change of gene expression: HPRT1 (1st listing (r50)): −0.5 | Log2 fold-change of gene expression: RPL13A (1st listing (r51)): 1.9 | Log2 fold-change of gene expression: GADPH (1st listing (r52)): 0.3 | Log2 fold-change of gene expression: ACTB (1st listing (r53)): 0.0 | Log2 fold-change of gene expression: PLXDC1 (1st listing (r74)): 0.3 | Log2 fold-change of gene expression: TNFAIP2 (1st listing (r91)): −0.2 | Log2 fold-change of gene expression: Robo4 (1st listing (r95)): −1.2 | Log2 fold-change of gene expression: 151516 (1st listing (r134)): 0.3 | Log2 fold-change of gene expression: TNFAIP2 (2nd listing (r92)): −0.1 | Log2 fold-change of gene expression: B2M (2nd listing (r97)): −1.6 | Log2 fold-change of gene expression: HPRT1 (2nd listing (r98)): 0.1 | Log2 fold-change of gene expression: RPL13A (2nd listing (r99)): 1.5 | Log2 fold-change of gene expression: GADPH (2nd listing (r100)): 0.8 | Log2 fold-change of gene expression: ACTB (2nd listing (r101)): −0.4 | Log2 fold-change of gene expression: PLXDC1 (2nd listing (r104)): 0.2 | Log2 fold-change of gene expression: 151516 (2nd listing (r139)): 0.3 | Log2 fold-change of gene expression: Robo4 (2nd listing (r188)): 0.2 | Log2 fold-change of gene expression: B2M (3rd listing (r145)): −0.4 | Log2 fold-change of gene expression: HPRT1 (3rd listing (r146)): 0.4 | Log2 fold-change of gene expression: RPL13A (3rd listing (r147)): 1.1 | Log2 fold-change of gene expression: GADPH (3rd listing (r148)): −0.3 | Log2 fold-change of gene expression: ACTB (3rd listing (r149)): −0.9 | Log2 fold-change of gene expression: B2M (4th listing (r193)): −0.8 | Log2 fold-change of gene expression: HPRT1 (4th listing (r194)): 0.1 | Log2 fold-change of gene expression: RPL13A (4th listing (r195)): 0.6 | Log2 fold-change of gene expression: GADPH (4th listing (r196)): 0.4 | Log2 fold-change of gene expression: ACTB (4th listing (r197)): −0.1
